Test results from patent US20230138400A1, “METHODS AND PHARMACEUTICAL COMPOSITIONS FOR REPROGRAMING IMMUNE ENVIRONMENT IN A SUBJECT IN NEED THEREOF” (INSERM (INSTITUT NATIONAL DE LA SANTE ET DE LA RECHERCHE …, priority 2016, published 2023).

Legend:
[1] = system: naive CD4 T cells isolated from the spleen of C57BL/6 mice; test: Polarization of naive CD4 T cells (Th1, Th2, Treg, Th17 conditions) in presence of DDA, flow cytometry; type: cell-based, mouse
Procedure: FIGS. 1A-E. Sorted naive CD4 T cells were isolated from the spleen of C57BL/6 mice and activated in the indicated Th1, Th2, Treg, or Th17 polarizing conditions as described in the “Materials and methods” section”. These cells were cultured in the presence of increasing concentrations of DDA. After 96 hours, the percentage of (A) Th1: CD4+Tbet+IFNg+, (B) Th2: CD4+GATA3+[…], (C) Treg: CD4+Foxp3+IL10+ and (D) Th17: CD4+RORgt+[…], cells was measured by flow cytometry. (E) Sorted naive CD8 T cells were isolated from the spleen of the C57BL/6 mice and activated with anti-CD3, anti-CD28 and recombinant IL2. After 96 hours, the percentage of cytotoxic T CD8+GranzymB+IFNg+ cells was measured by flow cytometry.
FIGS. 2A-E. Sorted naive CD4 T cells isolated from the spleen of C57BL/6 mice were activated in Th1, Th2, Treg, or Th17 polarizing conditions as indicated in the “Materials and methods” section”. After 96 h, increasing concentrations of DDA was added on polarized CD4 T cells for 24 h. Then the percentage of (A) CD4+Tbet+IFNg+, (B) CD4+GATA3+[…], (C) CD4+Foxp3+IL10+ and (D) CD4+RORgt+[…] cells was measured by flow cytometry. (E) Sorted naïve CD8 T cells were isolated from the spleen of the C57BL/6 mice and activated with anti-CD3, anti-CD28 and recombinant IL2. After 96 h, increasing concentrations of DDA was added on activated CD8 T cells for 24 h. Then the percentage of cytotoxic T CD8+GranzymB+IFNg+ cells was measured by flow cytometry.
Cells isolation. Single-cells leukocyte suspensions were obtained from spleens of C57BL/6 mice. Naive CD4 or CD8 T cells are isolated by depletion of memory CD4 or CD8 T cells and non-CD4 or non-CD8 T cells according the manufacturer's protocol from Miltenyi kit (Miltenyi biotec). Purities of CD4+CD44l^ow CD62L^high or CD8+CD44l^ow CD62L^high T cells after isolation were >98%
Immune cell culture. Isolated CD4+ or CD8+ T cells were cultures in 96-well flat bottom plates (0.25×10^6 cells per wells) in 0.25 ml of complete RPMI 1640 media (10% FBS, 1% penicillin/Streptomycin, 1% sodium pyruvate, 1% HEPES and 50 μM b-mercaptoethanol) in the presence of 10 μg/ml plate-bound anti-mouse CD3 (2C11) and 2 μg/ml soluble α-CD28 (LEAF) in addition to 50 ng/ml of recombinant IL-2 (e-bioscience). DDA (synthesized by Affichem) diluted in the solvent vehicle was added at increasing concentration (0-1-10-100 and 1000 nM). Cells were cultured in polarizing Th1 (20 ng/ml of recombinant […] and 10 μg/ml of anti-IL4), Th2 (50 ng/ml of recombinant IL-4, 10 μg/ml of anti-IFNg), Th17 (10 ng/ml of recombinant TGF-b, 100 ng/ml of recombinant IL-6, 10 μg/ml of anti-IFN-g and 10 μg/ml of anti-IL4) or Treg (10 ng/ml of recombinant TGF-b, 10 μg/ml of anti-IFNg and 10 μg/ml of anti-IL4) conditions. All recombinant cytokines were purchased from Peprotech and antibodies were purchased from eBioscience. After 5 days of culture, cells were collected and analyzed by flow cytometry. To investigate the impact of DDA on polarization of CD4 or CD8 naive T cells, DDA or the solvent vehicle was added at the beginning of culture at Day 0 or at Day 4 and cells was analyzed at day 5 by flow cytometry.

SKMEL-28 cells = test: Exosome production of SKMEL-28 cells (shCTRL or shLXRbeta) treated with DDA; type: cell-based, human; details: for production of exosomes: 2.5 μM DDA for 24 h
Procedure: Obtention of LXRβ knock-down cells. SKMEL28 cells ([…]) or E0771 (3×10^6) were transfected with the Neon Transfection System (Invitrogen) with 1 μg or 3 μg of small hairpin RNA targeting human LXRβ or mouse LXRβ (two different shRNA were used) or with 1 μg control ShRNA. Transfected cells were selected in multiwell plates (10 000 cells/well) with puromycin ranging from 1-10 μg/ml. Two clones transfected with two different shRNA against LXRβ with LXRβ expression knocked-down by 70% and 80% (for SKMEL28) and by 90% and 95% (for E0771) and two control clones were selected.
Exosome quantification. 1) Protein content in exosomes was quantified by the spectrophotometric method of Lowry in presence of 0.1% w/v sodium dodecyl […]. 2) Exosomes were also quantified by flow cytometry following labeling with the fluorescent lipid Bodipy-ceramide (Invitrogen-Molecular Probes) for 1 hour at 37° C. Excess of Bodipy-ceramide was removed by filtration and washing through the 1000 kDa Vivaspin filter and exosomes were quantitated by FACS. 3) Numeration of exosomes vesicles was performed either by nano tracking analysis (Nanosight equipment, Malvern, France) or by TRPS (tunable resistive pulse sensing) technology (qNano equipment, Izon, UK).

E0771 tumors = test: Immune cells infiltrated into E0771 tumors (wild type, sh control, sh LXR) after DDA, flow cytometry; type: in vivo, mouse

SMILES: CC(C)CCCC(C)[C@H]1CCC2C3C[C@@H](NCCc4cnc[nH]4)[C@@]4(O)C[C@@H](O)CC[C@]4(C)C3CC[C@@]21C (some centres unmarked) [DDA, 5a-hydroxy-6b-[2-(1H-imidazol-4-yl)ethylamino]cholestan-3b-ol]
- concentration from which differentiation of Th0 into Th1 is increased ([1]; DDA added at day 0, Th1 polarizing conditions, 96 h, CD4+Tbet+IFNg+): ≥ 1 nM
- Th2 differentiation ([1]; DDA added at day 0, Th2 polarizing conditions): no effect
- concentration from which differentiation of Th0 into Th17 is increased ([1]; DDA added at day 0, Th17 polarizing conditions, 96 h): ≥ 100 nM
- Treg differentiation ([1]; DDA added at day 0, Treg polarizing conditions): no effect
- concentration from which differentiation of Th0 into Th1 is increased ([1]; DDA added at day 4 for 24 h): ≥ 1 nM
- differentiation into Th2 ([1]; DDA added at day 4 for 24 h): no effect
- differentiation into Th17 ([1]; DDA added at day 4 for 24 h): no effect
- differentiation of Th0 into Treg ([1]; DDA added at day 4 for 24 h (FIG. 2)): inhibits
- activated phenotype of CD4 T cells (CD44 at their surface) ([1]; day 4, data not shown): upregulation of CD44
- production of exosomes (SKMEL-28 cells; SKMEL-28-shCTRL cells): about 2 fold
- production of exosomes (SKMEL-28 cells; SKMEL-28-shLXRbeta cells): does not stimulate
- exosome secretion from human melanoma cells (SKMEL-28 cells; SKMEL-28 cells, data not shown): stimulates exosome secretion
- number of macrophages M2 infiltrated into the tumors (E0771 tumors; 0.37 μg/kg DDA (FIG. 18)): decreases
- number of MDSC infiltrated into the tumor (E0771 tumors; 0.37 μg/kg DDA (FIG. 19)): decreases
- ratio of dendritic cells CD11+ CD8α+ versus MDSC (E0771 tumors; 0.37 μg/kg DDA (FIG. 19)): increases
- LXRβ dependence of effect on macrophages M1 (E0771 tumors; shLXRβ vs LXRβ expressing tumors (FIG. 18)): dependent of the LXRβ
- effects on MDSC and dendritic cells/MDSC ratio (E0771 tumors; tumors knocked-down for the LXRβ (FIG. 19)): abolished
